Where two headings read alike, the source gives them in different places.
Key:
[1] = system: SARS-CoV-2; type: cell-based; details: Caco-2 cells, MOI 0.01, 24 hours post-infection
[2] = system: SARS-CoV-2; type: cell-based; details: Caco-2 cells; for reduction of virus production in the supernatants: after 8, 12 and 24 h, at concentrations as low as 1μM; for reduction of SARS-Cov2 RNA levels in infected cells: after 4 hours
[3] = target: SARS-CoV-2 Mpro (Severe acute respiratory syndrome coronavirus 2, UniProt P0DTD1); type: biochemical
[4] = system: syncytia formation in SARS-CoV-2 infected A549-ACE2/TMPRSS2 cells; type: cell-based
[5] = system: syncytia formation in SARS-CoV-2 infected Vero cells; type: cell-based
[6] = system: HCoV-OC43; type: cell-based; details: 10 μM, HRT-18G cells
[7] = system: SARS-CoV-2; type: cell-based; details: 100 μM compound, 24 hours post-infection
[8] = system: SARS-CoV-2; type: cell-based; details: primary bronchial epithelial cells, 10 μM or 1 μM, 48 h post-infection
[9] = system: SARS-CoV-2; type: cell-based; details: primary nasal epithelial cells, 10 μM or 1 μM, 48 h post-infection
[10] = system: SARS-CoV-2; type: cell-based; details: Calu-3 human lung cells, MOI 0.01, 24 hours post-infection

Compound	lowest concentration reducing the infectivity of SARS-CoV-2 [1] [nM]	reduction of virus production in the supernatants [2]	reduction of SARS-Cov2 RNA levels in infected cells [2]	inhibition of SARS-CoV-2 Mpro ([3]; 10 μM compound, Mpro at 2 μM)	inhibition of SARS-CoV-2 Mpro ([3]; 100 μM compound)	syncytia formation (fusion index) [4]	syncytia formation (fusion index) [5]	activity on HCov-OC43 [6]	infectivity of SARS-CoV2 in Vero cells [7]	SARS-Cov2 RNA levels in infected cells [8]	virus production (supernatants titered on Vero cells) [8]	SARS-Cov2 RNA levels in infected cells [9]	virus production (supernatants titered on Vero cells) [9]	lowest concentration reducing the infectivity of SARS-CoV-2 [10] [nM]
O=C1CCC[C@@H](C(=O)O)N1 [lactam 3, (S)-6-oxopiperidine-2-carboxylic acid]	15	about 100 fold	about 20%											
O=C1CSC[C@@H](C(=O)O)N1 [lactam 2, (R)-5-oxothiomorpholine-3-carboxylic acid]	45	about 100 fold	about 20%	about 50%	complete inhibition	reducing syncytia formation	reducing syncytia formation	active	reducing the infectivity	reduction in SARS-Cov2 RNA levels	reduction of virus production	reduction in SARS-Cov2 RNA levels	reduction of virus production	45

From US20240000794A1, “LACTAM AND LACTONE DERIVATIVES FOR USE IN THE TREATMENT OF A VIRAL INFECTION SUCH AS COVID-19” (UNIVERSITÉ CATHOLIQUE DE LOUVAIN, priority 2020, published 2024)
